Experimental data reported in US20060046972A1, “Cytotoxic nucleoside analog compound 003 for treating cancer” (Parker Hughes Institute, priority 2004, published 2006).
Several values for one entry are separate records, joined by “and”; a condition that tells them apart may be missing. Equal entries are not always repeated.

Tested on: CD-1 mice
Assay: Acute toxicity of intraperitoneal bolus doses in CD-1 mice
Type: in vivo
Settings: for tubular dilation: after the 30 day observation period
Description: 1.2.8 Animals Female CD-1 mice (Body weight: ˜25 g; Age: 7 week old) were purchased, from Charles River Laboratories (Willmington, Mass., USA). MMTV Neu-mice [FVB/N-TgN(MMTV neu)202MUL; Jackson Laboratory, Bar Harbor, Me.] were bred to produce multiple litters. All mice were housed in microisolator cages (Lab Products, Inc., Maywood, N.Y., USA) containing autoclaved bedding in a controlled specific pathogen-free (SPF) environment (12-h light/12-h dark photoperiod, 22±1° C., 60±10% relative humidity), which is fully accredited by the USDA (United States Department of Agriculture). Adult male Lewis rats (Body weight: ˜160 g) were obtained from the specific pathogen-free (SPF) breeding facilities of Harlan Sprague Dawley (Indianapolis, Id., USA) at 14 weeks of age. All husbandry and experimental contact made with the mice and rats maintained SPF conditions. The rats were kept in microisolater cages (Allentown Caging Equipment Co., Inc., Allentown, N.J., USA) containing autoclaved food, water, and bedding. Animal studies were approved by Parker Hughes Institute Animal Care and Use Committee and all animal care procedures 1.5 conformed to the Guide for the Care and Use of Laboratory Animals (National Research Council, National Academy Press, Washington D.C. 1996, USA).
The toxicity profile of Compound 003 in CD-1 mice and Lewis rats was examined, using standard procedures as previously reported for other experimental drugs (Uckun, et al., 2003, Arzneimittelforschun. 53:357; Uckun, et al., 2002, Clin Cancer Res. 8: 1224; Uckun, et al., 2002, Antimicrob Agents Chemother. 46:3428). In brief, mice and rats were treated with intraperitoneal injections of vehicle or Compound 003 at multiple dose levels. Compound 003 was administered as a 0.2 mL (for mice) or 0.5 mL (for rats) bolus injection containing 10% DMSO as a vehicle. Animals were allowed free access to autoclaved standard pellet food and tap water throughout the experiments and monitored daily for morbidity and mortality. Animals were electively sacrificed on day 7 or day 30 to determine the toxicity of Compound 003 by examining their blood chemistry profiles, blood counts, and evaluating multiple organs for the presence of toxic lesions. Blood was collected by intracardiac puncture following anesthesia with ketamine:xylazine and immediately heparinized. The blood chemistry profiles were examined using a Synchron CX5CE Chemical Analyzer (Beckman Instruments, Inc., Fullerton, Calif., USA). Blood counts (red blood cells [RBC], white blood cells [WBC] and platelets [Plt]) were determined using a HESKA Vet ABC-Diff Hematology Analyzer (HESKA Corporation, Fort Collins, Colo., USA). Absolute neutrophil counts (ANC) and absolute lymphocyte counts (ALC) were calculated from WBC values after determining the percentages of neutrophils and lymphocytes by a manual differential count. At the time of necropsy, […] from mice (bone, bone marrow, brain, cecum, heart, kidney, large intestine, liver, lung, lymph node, ovary, pancreas, skeletal muscle, skin, small intestine, spleen, stomach, thymus, thyroid gland, urinary bladder, and uterus, as available) and 21 different tissues from rats (bone, bone marrow, brain, coagulating gland, epididymis, heart, large intestine, small intestine, kidney, liver, lung, pancreas, peripheral nerve/spinal nerve, skeletal muscle, skin, spinal cord, spleen, stomach, testes, thymus, urinary bladder) were collected within 15 minutes after sacrifice, gross pathological findings were documented, organs were preserved in 10% neutral phosphate buffered formalin, and processed for histopathological examination. For histopathologic studies, formalin fixed tissues were dehydrated and embedded in paraffin by routine methods. Glass slides with affixed 4-5 micron tissue sections were prepared and stained with Hemotoxylin and Eosin (H&E). […]

[1] = 10 mg/kg single i.p. bolus, Day 7
[2] = 10 mg/kg single i.p. bolus, Day 30
[3] = 20 mg/kg single i.p. bolus, Day 7
[4] = 20 mg/kg single i.p. bolus, Day 30
[5] = 40 mg/kg single i.p. bolus, Day 7
[6] = 40 mg/kg single i.p. bolus, Day 30
[7] = 80 mg/kg single i.p. bolus, Day 7
[8] = 80 mg/kg single i.p. bolus, Day 30

COC(=O)C(C)NP(=O)(OCC1OC(n2cc(C)c(=O)[nH]c2=O)CC1N=[N+]=[N-])Oc1ccc(OC)cc1 (centres unmarked) [Compound 003, 3′-azidothymidine 5′-[p-methoxyphenylmethoxyalaninyl phosphate]]
ALC [1]: 5.5 ± 0.0 ×10^9/L | ANC [1]: 1.2 ± 0.0 ×10^9/L | AST [1]: 137.1 ± 23.1 IU/L | Albumin [1]: 1.5 ± 0.0 g/dL | Ammonia [1]: 174.8 ± 11.8 µmol/L | Amylase [1]: 1728.6 ± 248.5 U/L | BUN [1]: 24.1 ± 0.8 mg/dL | Calcium [1]: 8.9 ± 0.2 mg/dL | Creatinine [1]: 0.3 ± 0.0 mg/dL | Mean Weight Change (g ± SEM) [1]: 0.16 ± 0.15 g | Mean Weight Change [%] [1]: (0.6 ± 0.6%) | Morbidity [1]: 0/20 | Phosphate [1]: 6.2 ± 0.2 mg/dL | RBC [1]: 9.4 ± 0.2 ×10^12/L | Total Bilirubin [1]: 0.7 ± 0.1 mg/dL | Total Protein [1]: 4.1 ± 0.1 g/dL | Toxic Organ Lesions [1]: 0/20 | Triglycerides [1]: 158.3 ± 18.2 mg/dL | WBC [1]: 7.3 ± 0.6 ×10^9/L | Weight Gain [1]: 13/20 | Weight Loss [1]: 7/20 | ALC [2]: 7.5 ×10^9/L and 7.5 ± 0.0 ×10^9/L | ANC [2]: 2.1 ± 0.0 ×10^9/L | AST [2]: 114.0 ± 12.4 IU/L | Albumin [2]: 1.2 ± 0.0 g/dL | Ammonia [2]: 205.3 ± 15.6 µmol/L | Amylase [2]: 1993.5 ± 415.9 U/L | BUN [2]: 21.6 ± 0.7 mg/dL | Calcium [2]: 8.2 ± 0.2 mg/dL | Creatinine [2]: 0.3 ± 0.0 mg/dL | Mean Weight Change (g ± SEM) [2]: 2.61 ± 0.45 g | Mean Weight Change [%] [2]: (10.4 ± 1.8%) | Morbidity [2]: 0/20 | Phosphate [2]: 5.7 ± 0.2 mg/dL | RBC [2]: 9.1 ± 0.1 ×10^12/L | Total Bilirubin [2]: 0.4 ± 0.0 mg/dL | Total Protein [2]: 4.0 ± 0.1 g/dL | Toxic Organ Lesions [2]: 0/20 | Triglycerides [2]: 88.1 ± 10.3 mg/dL | WBC [2]: 9.9 ± 1.0 ×10^9/L | Weight Gain [2]: 18/20 | Weight Loss [2]: 2/20 | ALC [3]: 6.9 ± 0.0 ×10^9/L | ANC [3]: 1.6 ± 0.0 ×10^9/L | AST [3]: 100.0 ± 6.7 IU/L | Albumin [3]: 1.4 ± 0.0 g/dL | Ammonia [3]: 201.9 ± 15.0 µmol/L | Amylase [3]: 1810.3 ± 268.8 U/L | BUN [3]: 23.7 ± 0.7 mg/dL | Calcium [3]: 8.9 ± 0.1 mg/dL | Creatinine [3]: 0.4 ± 0.0 mg/dL | Mean Weight Change (g ± SEM) [3]: -0.04 ± 0.16 g | Mean Weight Change [%] [3]: (−0.1 ± 0.7%) | Morbidity [3]: 0/20 | Phosphate [3]: 6.6 ± 0.2 mg/dL | RBC [3]: 9.0 ± 0.3 ×10^12/L | Total Bilirubin [3]: 0.5 ± 0.1 mg/dL | Total Protein [3]: 4.2 ± 0.1 g/dL | Toxic Organ Lesions [3]: 0/20 | Triglycerides [3]: 144.3 ± 17.5 mg/dL | WBC [3]: 8.7 ± 0.8 ×10^9/L | Weight Gain [3]: 10/20 | Weight Loss [3]: 10/20 | ALC [4]: 6.8 ×10^9/L and 6.8 ± 0.0 ×10^9/L | ANC [4]: 2.0 ± 0.0 ×10^9/L | AST [4]: 107.8 ± 13.2 IU/L | Albumin [4]: 1.1 ± 0.0 g/dL | Ammonia [4]: 150.5 ± 10.3 µmol/L | Amylase [4]: 1587.6 ± 261.5 U/L | BUN [4]: 20.4 ± 0.6 mg/dL | Calcium [4]: 8.1 ± 0.1 mg/dL | Creatinine [4]: 0.3 ± 0.0 mg/dL | Mean Weight Change (g ± SEM) [4]: 3.01 ± 0.28 g | Mean Weight Change [%] [4]: (12.4 ± 1.1%) | Morbidity [4]: 0/20 | Phosphate [4]: 6.2 ± 0.1 mg/dL | RBC [4]: 9.1 ± 0.2 ×10^12/L | Total Bilirubin [4]: 0.5 ± 0.0 mg/dL | Total Protein [4]: 3.8 ± 0.1 g/dL | Toxic Organ Lesions [4]: 0/20 | Triglycerides [4]: 84.6 ± 7.2 mg/dL | WBC [4]: 9.3 ± 0.8 ×10^9/L | Weight Gain [4]: 20/20 | Weight Loss [4]: 0/20 | tubular dilation (20 mg/kg): 2/20 | ALC [5]: 5.5 ± 0.0 ×10^9/L | ANC [5]: 1.7 ± 0.0 ×10^9/L | AST [5]: 134.3 ± 23.2 IU/L | Albumin [5]: 1.5 ± 0.0 g/dL | Ammonia [5]: 366.8 ± 23.7 µmol/L | Amylase [5]: 1597.8 ± 100.0 U/L | BUN [5]: 27.6 ± 0.7 mg/dL | Calcium [5]: 8.8 ± 0.2 mg/dL | Creatinine [5]: 0.5 ± 0.1 mg/dL | Mean Weight Change (g ± SEM) [5]: -0.06 ± 0.21 g | Mean Weight Change [%] [5]: (−0.2 ± 0.9%) | Morbidity [5]: 0/20 | Phosphate [5]: 7.0 ± 0.2 mg/dL | RBC [5]: 9.8 ± 0.3 ×10^12/L | Total Bilirubin [5]: 0.7 ± 0.2 mg/dL | Total Protein [5]: 4.5 ± 0.1 g/dL | Toxic Organ Lesions [5]: 0/20 | Triglycerides [5]: 134.7 ± 21.6 mg/dL | WBC [5]: 7.4 ± 0.7 ×10^9/L | Weight Gain [5]: 9/20 | Weight Loss [5]: 11/20 | ALC [6]: 4.7 ×10^9/L and 4.7 ± 0.0 ×10^9/L | ANC [6]: 1.4 ± 0.0 ×10^9/L | AST [6]: 198.5 ± 51.8 IU/L | Albumin [6]: 1.2 ± 0.0 g/dL | Ammonia [6]: 139.2 ± 8.3 µmol/L | Amylase [6]: 2153.7 ± 411.4 U/L | BUN [6]: 20.5 ± 0.8 mg/dL | Calcium [6]: 7.2 ± 0.2 mg/dL | Creatinine [6]: 0.3 ± 0.0 mg/dL | Mean Weight Change (g ± SEM) [6]: 2.34 ± 0.35 g | Mean Weight Change [%] [6]: (9.6 ± 1.4%) | Morbidity [6]: 0/20 | Phosphate [6]: 5.9 ± 0.3 mg/dL | RBC [6]: 9.1 ± 0.1 ×10^12/L | Total Bilirubin [6]: 0.5 ± 0.1 mg/dL | Total Protein [6]: 3.9 ± 0.1 g/dL | Toxic Organ Lesions [6]: 0/20 | Triglycerides [6]: 74.9 ± 5.0 mg/dL | WBC [6]: 6.2 ± 0.7 ×10^9/L | Weight Gain [6]: 18/20 | Weight Loss [6]: 2/20 | tubular dilation (40 mg/kg): 1/20 | ALC [7]: 6.7 ± 0.0 ×10^9/L | ANC [7]: 2.4 ± 0.0 ×10^9/L | AST [7]: 111.4 ± 7.8 IU/L | Albumin [7]: 1.5 ± 0.1 g/dL | Ammonia [7]: 293.1 ± 23.4 µmol/L | Amylase [7]: 1424.6 ± 37.1 U/L | BUN [7]: 27.7 ± 0.9 mg/dL | Calcium [7]: 9.1 ± 0.2 mg/dL | Creatinine [7]: 0.3 ± 0.0 mg/dL | Mean Weight Change (g ± SEM) [7]: 0.09 ± 0.20 g | Mean Weight Change [%] [7]: (0.4 ± 0.8%) | Morbidity [7]: 0/20 | Phosphate [7]: 6.0 ± 0.2 mg/dL | RBC [7]: 9.3 ± 0.2 ×10^12/L | Total Bilirubin [7]: 0.8 ± 0.2 mg/dL | Total Protein [7]: 4.9 ± 0.2 g/dL | Toxic Organ Lesions [7]: 0/20 | Triglycerides [7]: 197.6 ± 34.7 mg/dL | WBC [7]: 9.5 ± 0.9 ×10^9/L | Weight Gain [7]: 11/20 | Weight Loss [7]: 9/20 | ALC [8]: 3.4 ×10^9/L and 3.4 ± 0.0 ×10^9/L | ANC [8]: 1.6 ± 0.0 ×10^9/L | AST [8]: 154.2 ± 33.8 IU/L | Albumin [8]: 1.2 ± 0.0 g/dL | Ammonia [8]: 178.4 ± 17.9 µmol/L | Amylase [8]: 1397.1 ± 339.3 U/L | BUN [8]: 26.1 ± 1.3 mg/dL | Calcium [8]: 7.7 ± 0.2 mg/dL | Creatinine [8]: 0.3 ± 0.0 mg/dL | Mean Weight Change (g ± SEM) [8]: 3.24 ± 0.29 g | Mean Weight Change [%] [8]: (13.4 ± 1.2%) | Morbidity [8]: 0/20 | Phosphate [8]: 5.8 ± 0.4 mg/dL | RBC [8]: 9.4 ± 0.2 ×10^12/L | Total Bilirubin [8]: 0.6 ± 0.0 mg/dL | Total Protein [8]: 4.1 ± 0.1 g/dL | Toxic Organ Lesions [8]: 0/20 | Triglycerides [8]: 85.6 ± 9.5 mg/dL | WBC [8]: 5.3 ± 0.5 ×10^9/L | Weight Gain [8]: 20/20 | Weight Loss [8]: 0/20 | tubular dilation (80 mg/kg): 1/20 | Kidney tubular degeneration, share of drug-treated mice (40 and 80 mg/kg, following the 7 day period): ~50% | leukopenia / lymphocyte depletion (day 30, 10-80 mg/kg): causes leukopenia in a dose-dependent fashion due to a selective depletion of lymphocytes | overall toxicity (histologic evaluation) (doses up to and including 80mg/kg): nontoxic | hematologic toxicity, renal toxicity, hepatotoxicity (highest dose level of 80 mg/kg/day): no evidence of hematologic toxicity renal toxicity, or hepatotoxicity | LD10 (single i.p. bolus, not reached at highest dose): > 80 mg/kg/day
